Results taken from publication PMC8765781, “A platform of assays for the discovery of anti-Zika small-molecules with activity in a 3D-bioprinted outer-blood-retina model” (PLoS ONE, 2022).
Where two headings read alike, the source gives them in different places.

Assays:
[1] = test system: ZIKV-RLuc (Cambodian strain FSS13025); assay: microbe, parasite or virus in culture; type: cell-based, Zika virus; details: read-out: Rluc-ZIKV (ZIKV Antiviral Assays), IC50
[2] = test system: wild-type ZIKV (Ugandan MR766 strain) in Vero cells; assay: ZIKV cytopathic effect (CPE) inhibition qHTS assay, CellTiter-Glo readout; type: cell-based, Zika virus; details: for IC50: read-out: ZIKV-infection (CPE, ZIKV Antiviral Assays), IC50
[3] = test system: ZIKV-mCherry (Cambodian strain FSS13025); assay: microbe, parasite or virus in culture; type: cell-based, Zika virus
[4] = test system: Solute carrier organic anion transporter family member 1B1; details: cited from earlier work
in vitro [5] = details: African green monkey
[6] = test system: caspase-3 activity induced by ZIKV in Vero cells; assay: cells; type: cell-based; details: read-out: Caspase 3 (ZIKV Antiviral Assays), IC50
[7] = test system: Transcription factor AP-1; details: cited from earlier work
in vitro [8] = details: human
[9] = target: Tyrosine-protein phosphatase non-receptor type 1; details: cited from earlier work
[10] = test system: DENV (Dengue virus type 2, strain New Guinea C)
[11] = test system: human neuronal progenitor cells (NPC)
[12] = test system: mCherry-ZIKV in human neuronal progenitor cells; assay: microbe, parasite or virus in culture; type: cell-based, Zika virus
[13] = Zika virus, Vero, read-out: Log AC50 (M) (converted)

CC1OC(OC2C(OC(=O)[C@]34CCC(C)(C)C[C@H]3C3=CCC5[C@@]6(C)CC[C@H](OC7OC(C(=O)O)C(O)C(O)C7O)C(C)(C)C6CC[C@@]5(C)[C@]3(C)CC4O)OC(CO)C2O)C(O)C(O)C1OC1OCC(O)C(O)C1O (stereo partly shown) [NCGC00381102-01]
IC50 ([1]; Zika virus, Vero, 48 h): 6.19 µM | CC-v2 (curve class classification of the dose response curve) [2]: -3 | Efficacy [2]: -33.279 | AC50 ([2]; Zika virus, Vero): 1.55e-05 M | IC50 ([2]; Zika virus, Vero, 48 h): 15.5 µM | AC50 [2, 13]: 1.55e-05 M | CC-v2 (curve class of the dose response curve) [3]: -1.4 | Efficacy (difference between neutral response and maximum compound response) [3]: -69.614 | Max Resp (difference between neutral response and response at highest compound concentration) [3]: -99.592 | -Log(IC50) M, Solute carrier organic anion transporter family member 1B1 [4]: Solute carrier organic anion transporter family member 1B1 -Log(IC50) M~5.40~-Log(IC50) M~0.8333~Target | CC50 at 48 h (in vitro [5]; Vero cells): > 50 µM | IC50 ([6]; Zika virus, Vero, 48 h): > 48000 nM

CC1(C)CC[C@]2(C(=O)O)CC[C@]3(C)C(=CCC4[C@@]5(C)CC[C@H](O[C@H]6O[C@H](C(=O)O)[C@@H](O)[C@H](O[C@@H]7O[C@H](CO)[C@H](O)[C@H](O)[C@H]7O)[C@H]6O)C(C)(C)C5CC[C@]43C)[C@@H]2C1 (stereo partly shown) [NCGC00385211-01, Calenduloside G]
IC50 ([1]; Zika virus, Vero, 48 h): 2.2 µM | Efficacy [2]: -58.411 | AC50 ([2]; Zika virus, Vero): 1.23e-05 M | IC50 ([2]; Zika virus, Vero, 48 h): 12.3 µM | AC50 [2, 13]: 1.23e-05 M | CC-v2 (curve class of the dose response curve) [3]: -1.3 | Efficacy (difference between neutral response and maximum compound response) [3]: -66.223 | Max Resp (difference between neutral response and response at highest compound concentration) [3]: -100.305 | AC50 ([3]; Zika virus, Vero): 3.19e-06 M | AC50 [3, 13]: 3.19e-06 M | -Log(IC50) M, Transcription factor AP-1 [7]: Transcription factor AP-1 -Log(IC50) M~4.74~-Log(IC50) M~0.8101~Target | CC50 at 48 h (in vitro [5]): > 50 µM | IC50 ([6]; Zika virus, Vero, 48 h): 1390 nM

CC1(C)CC[C@]2(C(=O)O)CC[C@]3(C)C(=CC[C@@H]4[C@@]5(C)CC[C@H](O[C@@H]6O[C@H](C(=O)O)[C@@H](O)[C@H](O)[C@H]6O)C(C)(C)[C@@H]5CC[C@]43C)[C@@H]2C1 [NCGC00384528-01, Calenduloside E]
IC50 ([1]; Zika virus, Vero, 48 h): 11 µM | CC50 (in vitro [8]): > 30 µM | Efficacy [2]: -27.436 | AC50 ([2]; Zika virus, Vero): 1.37e-05 M | IC50 ([2]; Zika virus, Vero, 48 h): 13.7 µM | AC50 [2, 13]: 1.37e-05 M | CC-v2 (curve class of the dose response curve) [3]: -1.2 | Efficacy (difference between neutral response and maximum compound response) [3]: -57.341 | Max Resp (difference between neutral response and response at highest compound concentration) [3]: -100.305 | AC50 ([3]; Zika virus, Vero): 4.99e-06 M | AC50 [3, 13]: 4.99e-06 M | -Log(IC50) M, Tyrosine-protein phosphatase non-receptor type 1 [9]: Tyrosine-protein phosphatase non-receptor type 1 -Log(IC50) M~5.46~-Log(IC50) M~0.7284~Target | CC50 at 48 h (in vitro [5]; Vero cells): > 50 µM | IC50 ([6]; Zika virus, Vero, 48 h): 1 nM

CC1=C[C@H]2O[C@@H]3[C@H](O)[C@@H](O)[C@](C)([C@@]2(CO)C[C@@H]1O)[C@]31CO1 [NCGC00381381-01, T-2 toxin tetraol]
CC50 (Vero cells; read-out: Cell toxicity counterscreen Vero, CC50): > 50 µM | CC50 (HepG2 cells; read-out: Cell toxicity counterscreen HepG2, CC50): > 30 µM

5-methylcytidine [NCGC00484060-01, reference compound]
DENV active Yes/No [10]: No | CC50 [11]: 19.2 µM | CC50 (Vero cells): > 50 µM | IC50 [1]: 18.5 µM | CC-v2 (curve class classification of the dose response curve) [2]: -1.2 | Efficacy [2]: -42.621 | Log AC50 (M) [2]: -4.8362 M | Max Resp [2]: -39.681 | AC50 ([2]; read-out: AC50): 1.46e-05 M | IC50 [2]: 14.6 µM | CC-v2 (curve class of the dose response curve) [3]: -1.2 | Efficacy (difference between neutral response and maximum compound response) [3]: -45.337 | Log AC50 (M) [3]: -5.0741 M | Max Resp (difference between neutral response and response at highest compound concentration) [3]: -100.16 | AC50 ([3]; read-out: AC50): 8.43e-06 M | SI value WHV (CC50/EC50) (WNV (Kern515/WN02)): 1.8 | Selectivity Index WHV (CC50/EC50) (WNV (Kern515/WN02)): 2 | WHV active Yes/No (WNV (Kern515/WN02)): No | CC-v2 (curve class) [12]: -2.2 | Efficacy [12]: -64.821 | Log AC50 (M) [12]: -4.4 M | Max Resp [12]: -51.196 | AC50 ([12]; read-out: AC50): 39.8 µM | IC50 ([12]; read-out: NPC (ZIKV Antiviral Assays), IC50): 39.8 µM | CC50 (HepG2 cells): > 30 µM | SI value ZIKV (CC50/EC50) (ZIKV): 28 | Selectivity Index ZIKV (CC50/EC50) (ZIKV): 28 | ZIKV active Yes/No (ZIKV): Yes | SI value YFV (CC50/EC50) (YFV (YFV 17D)): 3 | Selectivity Index YFV (CC50/EC50) (YFV (YFV 17D)): 3 | YFV active Yes/No (YFV (YFV 17D)): Yes | IC50 ([6]; ZIKV-infected Vero cells, 48 hr, unit inferred): > 48000 nM
